According to patent publication US20180178031A1, “DENTAL DEVICE AND PHOTODYNAMIC THERAPEUTIC SYSTEM USING SAME” (priority 2016, published 2018):

Columns and labels:
[1] = test system: gram negative (G (−)) bacteria (Aggregatibacter actinomycetemcomitans, Fusobacterium nucleatum, Porphyromonas gingivalis); assay: photodynamic therapy bacterial disinfection assay in vitro, G (−) bacteria; format: cell-based; conditions: photosensitizer plus infrared laser ray 808 nanometers, irradiating about 5 minutes, in vitro (FIG. 8)
Text: (§1) One group assay represents the different bacterial disinfection by using the photodynamic therapy method in vitro with a specific irradiated wavelength of the light, and the other group assay represents the different bacterial disinfection by using the photodynamic therapy method in vitro with a specific compound X and the specific irradiated wavelength of the light. […] The light is infrared laser ray. The specific irradiated wavelength of the infrared laser ray of is 808 nanometers. The specific compound X is a photosensitizer. The photosensitizer is the indocyanine green dye. The period of irradiating the bacteria is about 5 minutes. The bacteria include gram positive (G (+)) bacteria and gram negative (G (−)) bacteria. The G (+) bacteria include a Streptococcus mutans (S. mutans) and a Streptococcus sobrinus (S. sobrinus). The G (−) bacteria include an Aggregatibacter actinomycetemcomitans (A. actinomycetemcomitans), a Fusobacterium nucleatum (F. nucleatum), and a Porphyromonas gingivalis (P. gingivalis).

[2] = test system: gram positive (G (+)) bacteria (Streptococcus mutans, Streptococcus sobrinus); assay: photodynamic therapy bacterial disinfection assay in vitro, G (+) bacteria; format: cell-based; conditions: photosensitizer plus infrared laser ray 808 nanometers, irradiating about 5 minutes, in vitro (FIG. 8)
Text: as §1

SMILES: CC1(C)C(/C=C/C=C/C=C/C=C2\N(CCCCS(=O)(=O)O)c3ccc4ccccc4c3C2(C)C)=[N+](CCCCS(=O)(=O)[O-])c2ccc3ccccc3c21 [compound X, indocyanine green]
- percentage growth rate of the bacteria [1]: less than 20%
- percentage growth rate of the bacteria [2]: zero
